Consider 13 compounds from patent publication US8153653B2, “Amido-tropane derivatives” (Hoffmann-La Roche Inc., priority 2010, dated 2012).

By IC50 is commonly meant the concentration that gives 50% inhibition. A high value points to weaker potency in that assay.

The assay addresses T1, mGlyT-1b (Mus musculus, UniProt P28571).
T1 construct: host or cells: Flp-in-CHO cells, stably transfected
T1 sequence (P28571 1-651 isoform P28571-2): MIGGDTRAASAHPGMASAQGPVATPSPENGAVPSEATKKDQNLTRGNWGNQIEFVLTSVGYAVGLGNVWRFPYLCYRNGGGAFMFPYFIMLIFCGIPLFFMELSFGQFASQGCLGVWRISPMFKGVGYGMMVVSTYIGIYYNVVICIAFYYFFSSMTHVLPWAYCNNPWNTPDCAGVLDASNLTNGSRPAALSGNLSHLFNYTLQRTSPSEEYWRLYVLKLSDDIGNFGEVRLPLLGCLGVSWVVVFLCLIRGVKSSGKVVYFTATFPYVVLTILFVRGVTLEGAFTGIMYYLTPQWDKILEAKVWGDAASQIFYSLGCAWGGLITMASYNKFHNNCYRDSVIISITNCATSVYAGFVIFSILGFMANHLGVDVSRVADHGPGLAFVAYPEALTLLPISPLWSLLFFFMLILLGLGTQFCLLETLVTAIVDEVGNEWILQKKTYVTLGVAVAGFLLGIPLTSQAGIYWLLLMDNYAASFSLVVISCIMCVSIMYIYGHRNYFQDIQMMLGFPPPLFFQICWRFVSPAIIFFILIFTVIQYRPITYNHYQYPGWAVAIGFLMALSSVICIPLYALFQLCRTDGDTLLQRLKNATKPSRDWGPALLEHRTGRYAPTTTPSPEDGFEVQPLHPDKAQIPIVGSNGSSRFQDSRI
Put plainly: Glycine Uptake Inhibition Assay (mGlyT-1b). The note with it: [3H]-glycine uptake in Flp-in-CHO cells stably transfected with mGlyT-1b cDNA; 20 min preincubation at 22° C. It counts as cell-based. Here is the method:
DMEM complete medium: Nutrient mixture F-12 (Gibco Life-technologies), fetal bovine serum (FBS) 5%, (Gibco life technologies), Penicillin/Streptomycin 1% (Gibco life technologies), Hygromycin 0.6 mg/ml (Gibco life technologies), Glutamine 1 mM Gibco life technologies) Uptake buffer (UB): 150 mM NaCl, 10 mM Hepes-Tris, pH 7.4, 1 mM CaCl2, 2.5 mM KCl, 2.5 mM MgSO4, 10 mM (+) D-glucose. Flp-in™-CHO (Invitrogen Cat n° R758-07) cells stably transfected with mGlyT1b cDNA.
Glycine Uptake Inhibition Assay (mGlyT-1b)
On day 1 mammalian cells, (Flp-in™-CHO), transfected with mGlyT-1b cDNA, were plated at the density of 40,000 cells/well in complete F-12 medium, without hygromycin in 96-well culture plates. On day 2, the medium was aspirated and the cells were washed twice with uptake buffer (UB). The cells were then incubated for 20 min at 22° C. with either (i) no potential competitor, (ii) 10 mM non-radioactive glycine, (iii) a concentration of a potential inhibitor. A range of concentrations of the potential inhibitor was used to generate data for calculating the concentration of inhibitor resulting in 50% of the effect (e.g. IC50, the concentration of the competitor inhibiting glycine uptake of 50%). A solution was then immediately added containing [^3H]-glycine 60 nM (11-16 Ci/mmol) and 25 μM non-radioactive glycine. The plates were incubated with gentle shaking and the reaction was stopped by aspiration of the mixture and washing (three times) with ice-cold UB. The cells were lysed with scintillation liquid, shaken 3 hours and the radioactivity in the cells was counted using a scintillation counter.

`COc1cc(C(F)(F)F)cc(SC)c1C(=O)N[C@@]1(c2ccccc2)CC[C@@H]2CC[C@H]1N2C` (racemic) [Example 1, 2-Methoxy-N-((1RS,2RS,5SR)-8-methyl-2-phenyl-8-aza-bicyclo[3.2.1]oct-2-yl)-6-methylsulfanyl-4-trifluoromethyl-benzamide] registered a half-inhibitory concentration (IC50) of 14 nM.
Under `COc1cc(C(F)(F)F)cc(SC)c1C(=O)N[C@@]1(c2ccccc2)CC[C@@H]2CC[C@H]1N2C` (racemic) [Example 3, 2-Methoxy-N-((1R,2R,5S)-8-methyl-2-phenyl-8-aza-bicyclo[3.2.1]oct-2-yl)-6-methylsulfanyl-4-trifluoromethyl-benzamide] stands 8 nM.
In the case of `CN1[C@H]2CC[C@@H]1[C@](NC(=O)c1ccc(C(F)(F)F)cc1C1CC1)(c1ccccc1)CC2` (racemic) [Example 4, 2-Cyclopropyl-N-((1RS,2RS,5SR)-8-methyl-2-phenyl-8-aza-bicyclo[3.2.1]oct-2-yl)-4-trifluoromethyl-benzamide] it was 8 nM.
In the case of `CCc1cc(C(F)(F)F)cc(OC)c1C(=O)N[C@@]1(c2ccccc2)CC[C@@H]2CC[C@H]1N2C` (racemic) [Example 13, 2-Ethyl-6-methoxy-N-((1RS,2RS,5SR)-8-methyl-2-phenyl-8-aza-bicyclo[3.2.1]oct-2-yl)-4-trifluoromethyl-benzamide] it was 14 nM; in that of `CCc1cc(C(F)(F)F)ccc1C(=O)N[C@]1(c2ccccc2)CC[C@H]2CC[C@@H]1N2C` (stereo in doubt) [Example 5, 2-Ethyl-N-((1S,2S,5R) or (1R,2R,5S)-8-methyl-2-phenyl-8-aza-bicyclo[3.2.1]oct-2-yl)-4-trifluoromethyl-benzamide], 19 nM.
Compound `CCc1cc(C(F)(F)F)ccc1C(=O)N[C@@]1(c2ccccc2)CC[C@@H]2CC[C@H]1N2C` (stereo in doubt) [Example 6, 2-Ethyl-N-((1R,2R,5S) or (1S,2S,5R)-8-methyl-2-phenyl-8-aza-bicyclo[3.2.1]oct-2-yl)-4-trifluoromethyl-benzamide] had an IC50 of 31 nM.
In the case of `COc1cc(C(F)(F)F)cc(C)c1C(=O)N[C@@]1(c2ccccc2)CC[C@@H]2CC[C@H]1N2C` (stereo in doubt) [Example 7, 2-Methoxy-6-methyl-N-((1RS,2RS,5SR)-8-methyl-2-phenyl-8-aza-bicyclo[3.2.1]oct-2-yl)-4-trifluoromethyl-benzamide] it was 6 nM.
In the case of `COc1cc(C(F)(F)F)cc(C)c1C(=O)N[C@]1(c2ccccc2)CC[C@H]2CC[C@@H]1N2C` (stereo in doubt) [Example 8, 2-Methoxy-6-methyl-N-((1S,2S,5R) or (1R,2R,5S)-8-methyl-2-phenyl-8-aza-bicyclo[3.2.1]oct-2-yl)-4-trifluoromethyl-benzamide] it was 20 nM; in that of `COc1cc(C(F)(F)F)cc(C)c1C(=O)N[C@@]1(c2ccccc2)CC[C@@H]2CC[C@H]1N2C` (stereo in doubt) [Example 9, 2-Methoxy-6-methyl-N-((1R,2R,5S) or (1S,2S,5R)-8-methyl-2-phenyl-8-aza-bicyclo[3.2.1]oct-2-yl)-4-trifluoromethyl-benzamide], 20 nM.
In the case of `COc1cc(C(F)(F)F)cc(C2CC2)c1C(=O)N[C@@]1(c2ccccc2)CC[C@@H]2CC[C@H]1N2C` (stereo in doubt) [Example 10, 2-Cyclopropyl-6-methoxy-N-((1RS,2RS,5SR)-8-methyl-2-phenyl-8-aza-bicyclo[3.2.1]oct-2-yl)-4-trifluoromethyl-benzamide] it was 4 nM; in that of `COc1cc(C(F)(F)F)cc(C2CC2)c1C(=O)N[C@]1(c2ccccc2)CC[C@H]2CC[C@@H]1N2C` (stereo in doubt) [Example 11, 2-Cyclopropyl-6-methoxy-N-((1S,2S,5R) or (lR,2R.5S)-8-methyl-2-phenyl-8-aza-bicyclo[3.2.1]oct-2-yl)-4-trifluoromethyl-benzamide], 6 nM.
Compound `COc1cc(C(F)(F)F)cc(C2CC2)c1C(=O)N[C@@]1(c2ccccc2)CC[C@@H]2CC[C@H]1N2C` (stereo in doubt) [Example 12, 2-Cyclopropyl-6-methoxy-N-((1R,2R,5S) or (1S,2S,5R)-8-methyl-2-phenyl-8-aza-bicyclo[3.2.1]oct-2-yl)-4-trifluoromethyl-benzamide] displayed an IC50 of 6 nM.
Under `COc1cc(C(F)(F)F)cc(SC)c1C(=O)N[C@]1(c2ccccc2)CC[C@H]2CC[C@@H]1N2C` [Example 2, 2-Methoxy-N-((1S,2S,5R)-8-methyl-2-phenyl-8-aza-bicyclo[3.2.l]oct-2-yl)-6-methylsulfanyl-4-trifluoromethyl-benzamide] stands 21 nM.
